22 compounds from patent publication US20070072897A1, “Phenylaminopropanol derivatives and methods of their use” (Wyeth, priority 2005, published 2007) can be followed below.

pEC50: −log10 of the molar value. Where a name gives a salt, the structure may show the parent alone.

T1 sequence (P23975 whole entry): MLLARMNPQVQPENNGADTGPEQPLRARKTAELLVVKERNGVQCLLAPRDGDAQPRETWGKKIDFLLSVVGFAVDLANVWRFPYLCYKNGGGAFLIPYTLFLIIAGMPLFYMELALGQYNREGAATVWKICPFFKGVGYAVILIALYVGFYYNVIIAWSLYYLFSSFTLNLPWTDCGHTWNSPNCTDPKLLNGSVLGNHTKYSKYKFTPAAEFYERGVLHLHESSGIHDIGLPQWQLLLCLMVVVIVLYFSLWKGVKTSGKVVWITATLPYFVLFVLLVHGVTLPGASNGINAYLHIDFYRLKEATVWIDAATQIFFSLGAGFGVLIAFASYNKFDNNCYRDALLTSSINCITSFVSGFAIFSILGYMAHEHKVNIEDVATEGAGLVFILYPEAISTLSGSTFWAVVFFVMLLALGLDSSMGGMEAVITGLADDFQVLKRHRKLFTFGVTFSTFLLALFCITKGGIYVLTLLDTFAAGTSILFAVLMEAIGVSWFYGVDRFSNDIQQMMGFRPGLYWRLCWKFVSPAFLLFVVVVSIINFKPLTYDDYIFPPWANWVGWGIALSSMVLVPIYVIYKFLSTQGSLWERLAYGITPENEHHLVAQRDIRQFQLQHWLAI
T2 sequence (P28223 whole entry): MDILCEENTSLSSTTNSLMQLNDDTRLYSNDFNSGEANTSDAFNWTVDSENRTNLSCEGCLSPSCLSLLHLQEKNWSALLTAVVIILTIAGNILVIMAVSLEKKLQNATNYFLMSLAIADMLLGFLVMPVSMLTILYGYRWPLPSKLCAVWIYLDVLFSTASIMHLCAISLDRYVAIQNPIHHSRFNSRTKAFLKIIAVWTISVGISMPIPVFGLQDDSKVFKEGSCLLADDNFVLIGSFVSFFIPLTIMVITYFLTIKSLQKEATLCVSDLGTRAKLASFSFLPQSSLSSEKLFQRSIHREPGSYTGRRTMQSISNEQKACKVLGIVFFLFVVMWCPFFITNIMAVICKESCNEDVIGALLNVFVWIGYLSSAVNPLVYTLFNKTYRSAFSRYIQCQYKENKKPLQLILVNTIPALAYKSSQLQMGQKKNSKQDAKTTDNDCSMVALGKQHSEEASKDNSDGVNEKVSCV

The first experiment concerns the target T1, human hNET (Homo sapiens, UniProt P23975).
T1 construct: expressed in transfected cells; host or cells: MDCK (MDCK-Net6)
As to the kind of experiment: Norepinephrine (NE) uptake assay in MDCK-Net6 cells. The following applies: [3H]NE uptake, MDCK-Net6 cells stably transfected with hNET. The class given is cell-based. Here is the method:
Cells were plated at 300,000/T75 flask and cells were split twice weekly. […] Cells were plated at 250,000 cells/T75 flask and split twice weekly.
Norepinephrine (NE) Uptake Assay
On day 1, cells were plated at 3,000 cells/well in growth medium and maintained in a cell incubator (37° C., 5% CO2). On day 2, growth medium was replaced with 200 μl of assay buffer (25 mM HEPES; 120 mM NaCl; 5 mM KCl; 2.5 mM CaCl2; 1.2 mM MgSO4; 2 mg/ml glucose (pH 7.4, 37° C.)) containing 0.2 mg/ml ascorbic acid and 10 μM pargyline. Plates containing cells with 200 μl of assay buffer were equilibrated for 10 minutes at 37° C. prior to addition of compounds. A stock solution of desipramine was prepared in DMSO (10 mM) and delivered to triplicate wells containing cells for a final test concentration of 1 μM. Data from these wells were used to define non-specific NE uptake (minimum NE uptake). Test compounds were prepared in DMSO (10 mM) and diluted in assay buffer according to test range (1 to 10,000 nM). Twenty-five microliters of assay buffer (maximum NE uptake) or test compound were added directly to triplicate wells containing cells in 200 μl of assay buffer. The cells in assay buffer with test compounds were incubated for 20 minutes at 37° C. […] The reaction was terminated by decanting the supernatant from the plate. The plates containing cells were washed twice with 200 μl assay buffer (37° C.) to remove free radioligand. The plates were then inverted, left to dry for 2 minutes, then reinverted and air-dried for an additional 10 minutes. […] After cell lysis, 75 μl of scintillation cocktail was added to each well and the plates were sealed with film tape. The plates were returned to the shake table and vigorously shaken for a minimum of 10 minutes to ensure adequate partitioning of organic and aqueous solutions. The plates were counted in a Wallac Microbeta counter (PerkinElmer) to collect the raw cpm data.
For each experiment, a data stream of cpm values collected from the Wallac Microbeta counter was downloaded to a Microsoft Excel statistical application program. Calculations of EC50 values were made using the transformed-both-sides logistic dose response program written by Wyeth Biometrics Department.
For `CNC[C@@H](O)[C@H](c1ccccc1)n1ccc2c(OCc3ccccc3)cccc21` [Example 2, (1S,2R)-1-[4-(benzyloxy)-1H-indol-1-yl]-3-(methylamino)-1-phenylpropan-2-ol hydrochloride], the negative-log EC50 (pEC50) – broadly, −log10 of the EC50, conventionally taken in molar units – is 6.51.
The compound `CNC[C@@H](O)[C@H](c1cccc(F)c1)n1ccc2ccnc(C)c21` [Example 50, (1S,2R)-1-(3-fluorophenyl)-3-(methylamino)-1-(7-methyl-1H-pyrrolo[2,3-c]pyridin-1-yl)propan-2-ol hydrochloride] showed a pEC50 of 6.28. This pEC50 lies 0.23 log units lower than the previous one.
Same read-out and setting: then `CNC[C@@H](O)[C@H](c1cccc(F)c1)n1ccc2cc(O)ccc21` [Example 66, 1-[(1S,2R)-1-(3-fluorophenyl)-2-hydroxy-3-(methylamino)propyl]-1H-indol-5-ol hydrochloride], with 8.52; and `CNC[C@@H](O)[C@H](c1cc(F)cc(Cl)c1)N1CCc2ccccc21` [Example 113, (1S,2R)-1-(3-chloro-5-fluorophenyl)-1-(2,3-dihydro-1H-indol-1-yl)-3-(methylamino)propan-2-ol hydrochloride], with 7.48; and `CNC[C@@H](O)[C@H](c1ccccc1)n1ccc2cc(O)ccc21` [Example 65, 1-[(1S,2R)-2-hydroxy-3-(methylamino)-1-phenylpropyl]-1H-indol-5-ol hydrochloride], with 7.26.
On to `CNC[C@@H](O)[C@H](c1cccc(F)c1)N1C(=O)C(C)(C)c2ccc(F)cc21` [Example 118, 6-fluoro-1-[(1S,2R)-1-(3-fluorophenyl)-2-hydroxy-3-(methylamino)propyl]-3,3-dimethyl-1,3-dihydro-2H-indol-2-one hydrochloride], for which the negative-log EC50 (pEC50) is 7.40.
For `CNC[C@@H](O)[C@H](c1ccccc1)n1ccc2cc(C)nc(Cl)c21` [Example 44, (1S,2R)-1-(7-chloro-5-methyl-1H-pyrrolo[2,3-c]pyridin-1-yl)-3-(methylamino)-1-phenylpropan-2-ol hydrochloride], the pEC50 is 6.38.
For the compound `CNC[C@@H](O)[C@H](c1ccccc1)N1CC(C(C)C)c2ccccc21` (stereo partly drawn) [Example 60, (1S,2R)-1-(3-isopropyl-2,3-dihydro-1H-indol-1-yl)-3-(methylamino)-1-phenylpropan-2-ol hydrochloride], the negative logarithm of the EC50 (pEC50) is 7.17. This pEC50 lies 0.79 log units higher than the previous one.
Same read-out and setting: the figure for `CNC[C@@H](O)[C@H](c1cc(F)cc(Cl)c1)n1ccc2ccccc21` [Example 70, (1S,2R)-1-(3-chloro-5-fluorophenyl)-1-(1H-indol-1-yl)-3-(methylamino)propan-2-ol hydrochloride] is 7.21; for `CNC[C@@H](O)[C@H](c1ccccc1)N1C(=O)C(C)(C)c2cc(OCc3ccccc3)ccc21` [Example 68, 5-benzyloxy-1-[(1S,2R)-2-hydroxy-3-(methylamino)-1-phenylpropyl]-3,3-dimethyl-1,3-dihydro-2H-indol-2-one hydrochloride] it is 6.62.
`CNC[C@@H](O)[C@H](c1cc(F)cc(F)c1)N1C(=O)C(C)(C)c2ccccc21` [Example 64, 1-[(1S,2R)-1-(3,5-difluorophenyl)-2-hydroxy-3-(methylamino)propyl]-3,3-dimethyl-1,3-dihydro-2H-indol-2-one hydrochloride] had a pEC50 of 7.70.
As to `CNC[C@@H](O)[C@H](c1cccc(F)c1)n1cc(-c2cccc(OC)c2OC)c2ccccc21` [Example 40, (1S,2R)-1-[3-(2,3-dimethoxyphenyl)-1H-indol-1-yl]-1-(3-fluorophenyl)-3-(methylamino)propan-2-ol hydrochloride], the negative logarithm of the EC50 (pEC50) is 7.39.
Same read-out and setting: then `CC1(C)C(=O)N([C@@H](c2cc(F)cc(F)c2)[C@H](O)CN)c2c(F)cccc21` [Example 122, 1-[(1S,2R)-3-amino-1-(3,5-difluorophenyl)-2-hydroxypropyl]-7-fluoro-3,3-dimethyl-1,3-dihydro-2H-indol-2-one], with 6.68; and `CNC[C@@H](O)[C@H](c1cc(F)cc(Cl)c1)N1CC(C)(C)c2ccccc21` [Example 115, (1S,2R)-1-(3-chloro-5-fluorophenyl)-1-(3,3-dimethyl-2,3-dihydro-1H-indol-1-yl)-3-(methylamino)propan-2-ol hydrochloride], with 6.88; and `CNC[C@@H](O)[C@H](c1cccc(F)c1)n1cc(-c2ccc(F)cc2F)c2ccccc21` [Example 38, (1S,2R)-1-[3-(2,4-difluorophenyl)-1H-indol-1-yl]-1-(3-fluorophenyl)-3-(methylamino)propan-2-ol hydrochloride], with 6.87.
Same read-out and setting: the figure for `CNC[C@@H](O)[C@H](c1cccc(F)c1)n1cc(-c2cc(F)ccc2F)c2ccccc21` [Example 39, (1S,2R)-1-[3-(2,5-difluorophenyl)-1H-indol-1-yl]-1-(3-fluorophenyl)-3-(methylamino)propan-2-ol hydrochloride] is 7.15; for `CNC[C@@H](O)[C@H](c1cc(F)cc(Cl)c1)N1C(=O)C(C)(C)c2cccc(F)c21` [Example 112, 1-[(1S,2R)-1-(3-chloro-5-fluorophenyl)-2-hydroxy-3-(methylamino)propyl]-7-fluoro-3,3-dimethyl-1,3-dihydro-2H-indol-2-one hydrochloride] it is 8.70.
Same read-out and setting: the figure for `CNC[C@@H](O)[C@H](c1cccc(F)c1)n1cc(-c2ccccc2OC(C)C)c2ccccc21` [Example 35, (1S,2R)-1-(3-fluorophenyl)-3-(methylamino)-1-{3-[2-(isopropoxy)phenyl]-1H-indol-1-yl}propan-2-ol hydrochloride] is 6.77.
`CNC[C@@H](O)[C@H](c1cc(F)cc(F)c1)N1C(=O)C(C)(C)c2cccc(F)c21` [Example 62, 1-[(1S,2R)-1-(3,5-difluorophenyl)-2-hydroxy-3-(methylamino)propyl]-7-fluoro-3,3-dimethyl-1,3-dihydro-2H-indol-2-one hydrochloride] gave a pEC50 of 8.40.
Same read-out and setting: then `CNC[C@@H](O)[C@H](c1cccc(F)c1)n1c(=O)n(-c2ccccc2)c2cccc(F)c21` [Example 120, 4-fluoro-3-[(1S,2R)-1-(3-fluorophenyl)-2-hydroxy-3-(methylamino)propyl]-1-phenyl-1,3-dihydro-2H-benzimidazol-2-one hydrochloride], with 7.04.

The experiment is the same for the next values; noted with them: at 1 μM; [3H]NE uptake, MDCK-Net6 cells; read-out: hNET Percentage inhibition at 1 μM.
For the compound `CNC[C@@H](O)[C@H](c1ccccc1)n1ccc2cc(OC)ncc21` [Example 45, (1S,2R)-1-(5-methoxy-1H-pyrrolo[2,3-c]pyridin-1-yl)-3-(methylamino)-1-phenylpropan-2-ol hydrochloride], the inhibition – broadly, the relative decrease from the control value, in per cent – at 1 µM is 43%.
Still for that read-out and setting: then `CNC[C@@H](O)[C@H](c1cccc(F)c1)N1CCN(Cc2ccccc2)c2ccccc21` [Example 53, (1S,2R)-1-(4-benzyl-3,4-dihydroquinoxalin-1(2H)-yl)-1-(3-fluorophenyl)-3-(methylamino)propan-2-ol hydrochloride], with 49%.

A further experiment concerns the target T2, human 5-HT2A receptor (Homo sapiens, UniProt P28223).
T2 construct: expressed in transfected cells; host or cells: CHO
As to the kind of experiment: 5-HT2A FLIPR assay (calcium response to DOI) in CHO cells. It counts as cell-based. The following applies: CHO, read-out: 5-HT2A Percentage inhibition at 1 μM. Here is the method:
Cells are washed with PBS without Ca^2+ and 3 mL Trypsin is added to dissociate cells. After 3 minute incubation, 7 mL Trypsin Neutralizing Solution is added. Cells are then aspirated from flask and mixed in a 50 mL conical tube. 10 μL sample is used to count cells on a hemacytometer. […] Two 96-well drug plates are prepared for each cell plate. Plate 1 will contain compounds to be tested and plate 2 will contain the agonist DOI (3 nM) to activate a calcium response. Specific details of compound preparation are listed below. […] Outside wells are not used due to an edge effect seen in these cells. The reference compounds DOI and 5-HT are used as standard 5HT agonists. […] Standards for plate one are Vehicle, 1 μM DOI, and 3 nM MDL. […] On the day of the assay, test compound solutions of appropriate concentrations are diluted in assay buffer as described for single concentration testing. This procedure is followed to ensure that the solvent concentration is consistent across dilutions. The typical concentration testing range of compounds is 10^−10—10^−5 M in half log or full log increments. A 10 μM DOI stock is diluted to 60 nM and added to the respective wells. The pipeting station of the FLIPR will make an additional 20-fold dilution for a final concentration of 3 nM. Standards for this plate include Vehicle and 3 nM DOI. Contents of dye vial (Molecular Devices #R8090) are dissolved in 100 mL of 1×HBSS supplemented with 20 mM HEPES. Aliquots can be frozen at −20° C. for up to one week for future use. On the day of assay, dye is thawed and diluted to half concentration. […] Cells are allowed to adhere for 24 hours in 96-well plates. […] Cell, compound and DOI plates are loaded into the FLIPR machine. The baseline fluorescence level is read once every second for 1 minute. Compound (10 μL) is transferred from the compound plate to the cells and the fluorescence level recorded every 6 seconds for 2 minutes to determine any agonist activity. Baseline fluorescence is recorded again every second for 10 seconds. For antagonist determination, 10 μL of 3 nM DOI is transferred from the DOI plate to the cells and the fluorescence level recorded every 6 seconds for 5 minutes. The pipetting unit of the FLIPR machine completes all transfers. […] The data are log transformed prior to analysis.
Regarding `CNC[C@@H](O)[C@H](c1ccccc1)n1ccc2c(OCc3ccccc3)cccc21` [Example 2, (1S,2R)-1-[4-(benzyloxy)-1H-indol-1-yl]-3-(methylamino)-1-phenylpropan-2-ol hydrochloride], the inhibition at 1 µM was 29%.
